These results are taken from patent US12448400B2, “KRAS G12D modulating compounds” (priority 2023, dated 2025).

Each structure is given as a SMILES string.

One series has as its system GP2D (KRAS G12D) cells. The series is described as follows: 2D cell viability assay (CellTiter-Glo). Format: cell-based. To be noted: 96 h; GP2D cells, 4 days, CellTiter-Glo luminescence; read-out: G12D 2D EC50. Put shortly: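 Viability was read by CellTiter-Glo after 4 days at 37 °C of 2D culture of KRAS G12D GP2D cells (1000/well, RPMI, 10% FBS) on pre-spotted threefold compound dilutions. EC50 was fitted with a sigmoidal dose-response model as the point of half-maximal luminescence loss.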
Background: Cellular ATP, detected with luciferase, serves as a proxy for viable cell number.

Series [1] in a line: Rat oral pharmacokinetics. Details: species or system Male Sprague Dawley rats. To be noted: male, Sprague Dawley, in vivo. On the procedure:
Rat Oral Pharmacokinetics
Test compounds were formulated in solution formulations (10 w/v % Sulfobutylether-p-cyclodextrin; 90% w/v % 50 mM Citrate Buffer) and administered orally to a group of three Male Sprague Dawley rats. The animals were fasted overnight prior to dose administration and up to four hours after dosing. The test articles were administrated by oral gavage at a dose volume of 5 mL-eq/kg.
Blood samples were collected at predose and 0.25, 0.5, 1, 2, 4, 6, 8, 12, 24, 48 and 72 hours post dose into K2EDTA tubes and stored on wet ice until processed. Whole blood was processed to plasma by centrifugation (3500 rpm for 10 minutes at 5° C.) within 30 minutes of collection. Plasma samples were placed in Micronic 96 well tubes and stored at −80° C. until transferred. Plasma concentration of the test compounds was determined by LC-MS/MS. Pharmacokinetic parameters were estimated using non-compartment model analysis. The maximum observed concentration (Cmax) and area under the curve from time of dosing to last measured concentration (AUClast) were calculated and reported.

Series [2] is described as follows: Mouse oral cassette pharmacokinetics. It is filed as in vivo, male CD-1 mice. To be noted: male, CD-1, mouse, in vivo, po, 30 mg/kg. Summed up: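 Male CD-1 mice (n=4) dosed orally by gavage at 30 mg-eq./kg per compound as cassettes of 1–3 compounds in 10 w/v % Captisol/50 mM citrate. Plasma sampled 0.5–24 h post dose, analysed by LC-MS/MS; Cmax and AUClast from non-compartmental analysis.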

Series [3] in a line: Dog oral pharmacokinetics. More on the design: species or system Male Beagle dogs. To be noted: male, Beagle, in vivo, 10 mg/kg. On the procedure: Dog Oral Pharmacokinetics
Test compounds were formulated in solution formulations (10% w/v % Sulfobutylether-p-cyclodextrin; 90% w/v % 50 mM Citrate Buffer) and administered orally at 5 or 10 mg-eq./kg to a group of three Male Beagle dogs. The animals were fasted overnight prior to dose administration and up to four hours after dosing. The test articles were administrated by oral gavage at a dose volume of 5 ml/kg.
Blood samples were collected into K2EDTA tubes at predose and 0.25, 0.5, 1, 2, 4, 6, 8, 12, 24 hours post dose, and once daily collection post 24 hours up to 168 hours. Whole blood were stored on wet ice and processed to plasma by centrifugation (3500 rpm for 10 minutes at 5° C.) within 1 hour of collection. Plasma samples were placed in Micronic 96 well tubes and stored at −80° C. until transferred. Plasma concentration of the test compounds was determined by LC-MS/MS. Pharmacokinetic parameters were estimated using non-compartment model analysis. The maximum observed concentration (Cmax) and area under the curve from time of dosing to last measured concentration (AUClast) were calculated and reported.

In general, EC50 refers to the concentration giving half of the maximal effect. Consider `CCc1c(F)ccc2cc(O)cc(-c3c(F)c4c5c(nc(OC[C@@]67CCCN6C[C@H](F)C7)nc5c3F)N3C[C@H]5CC[C@@H]([C@H]3CCC4)N5Cc3oc(=O)oc3C)c12` (atropisomer, axis not shown; (aR)) [Example 77, 4-(((1S,4R,11R,15aR)-11-(8-ethyl-7-fluoro-3-hydroxynaphthalen-1-yl)-10,12-difluoro-8-(((2R,7aS)-2-fluorotetrahydro-1H-pyrrolizin-7a(5H)-yl)methoxy)-2,3,4,5,13,14,15,15a-octahydro-1H-1,4-epiminoazepino[1′,2′:1,8]azocino[2,3,4-de]quinazolin-16-yl)methyl)-5-methyl-1,3-dioxol-2-one], for which, in the series with GP2D (KRAS G12D) cells, the EC50 came out at 0.26 nM. The “Rat Parent AUC” value in series [1] (7.5 mg/kg) amounted to 0.43 µM·h.

`C#Cc1c(F)ccc2cc(N)nc(-c3c(F)c4c5c(nc(OC[C@@]67CCCN6C[C@H](F)C7)nc5c3F)N3C[C@H]5CC[C@@H]([C@H]3CCC4)N5Cc3oc(=O)oc3CC)c12` (atropisomer, axis not shown; (aR)) [Example 79, 4-(((1S,4R,11S,15aR)-11-(3-amino-8-ethynyl-7-fluoroisoquinolin-1-yl)-10,12-difluoro-8-(((2R,7aS)-2-fluorotetrahydro-1H-pyrrolizin-7a(5H)-yl)methoxy)-2,3,4,5,13,14,15,15a-octahydro-1H-1,4-epiminoazepino[1′,2′:1,8]azocino[2,3,4-de]quinazolin-16-yl)methyl)-5-ethyl-1,3-dioxol-2-one]: in the series on GP2D (KRAS G12D) cells, the EC50 was 1.2 nM. For the same compound, the “Rat Parent AUC” value in series [1] (7.5 mg/kg) is 0.22 µM·h.

On to `C#Cc1c(F)ccc2cc(O)cc(-c3nc4c5c(nc(OC[C@@]67CCCN6C[C@H](F)C7)nc5c3F)N3C[C@H]5CC[C@H](N5)[C@H]3CCC4)c12` [Comp. Ex. 75, reference compound], for which, in series [2], the “Mouse Parent AUC” value was found to be 0.051 µM·h. In series [3], the “Dog Parent % F” value turned out to be 0.6% and the “Dog Parent AUC” value came out at 0.071 µM·h.

Turning to `C#Cc1c(F)ccc2cccc(-c3nc4c5c(nc(OC[C@@]67CCCN6C[C@H](F)C7)nc5c3F)N3C[C@H]5CC[C@H](N5)[C@H]3CCC4)c12` [Comp. Ex. 76, (6aR,7S,10R)-2-(8-ethynyl-7-fluoronaphthalen-1-yl)-1-fluoro-13-(((2R,7aS)-2-fluorotetrahydro-1H-pyrrolizin-7a(5H)-yl)methoxy)-5,6,6a,7,8,9,10,11-octahydro-4H-3,11a,12,14,15-pentaaza-7,10-methanocyclohepta[4,5]cycloocta[1,2,3-de]naphthalene, reference compound], the “Mouse Parent AUC (nM * h)” value in series [2] is reported as 1,400 nM * h. In addition, in series [1] (5 mg/kg), the “Rat Parent % F” value stood at 2% and the “Rat Parent AUC” value is 0.059 µM·h.

For the compound `Cc1oc(=O)oc1CN1[C@@H]2CC[C@H]1[C@H]1CCCc3nc(-c4cc(O)cc5ccc(F)c(OC(F)(F)F)c45)c(F)c4nc(OC[C@@]56CCCN5C[C@H](F)C6)nc(c34)N1C2` [Example 18, 4-(((6aR,7S,10R)-1-fluoro-2-(7-fluoro-3-hydroxy-8-(trifluoromethoxy)naphthalen-1-yl)-13-(((2R,7aS)-2-fluorotetrahydro-1H-pyrrolizin-7a(5H)-yl)methoxy)-5,6,6a,7,8,9,10,11-octahydro-4H-3,11a,12,14,15-pentaaza-7,10-methanocyclohepta[4,5]cycloocta[1,2,3-de]naphthalen-15-yl)methyl)-5-methyl-1,3-dioxol-2-one], in series [3], the “Dog Parent % F” value is given as 12% and the “Dog Parent AUC” value is 0.6 µM·h.

In the case of `C#Cc1c(F)ccc2cc(N)cc(-c3nc4c5c(nc(OC[C@@]67CCCN6C[C@H](F)C7)nc5c3F)N3C[C@H]5CC[C@@H]([C@H]3CCC4)N5Cc3oc(=O)oc3CCC)c12` [Example 35, 4-(((6aR,7S,10R)-2-(3-amino-8-ethynyl-7-fluoronaphthalen-1-yl)-1-fluoro-13-(((2R,7aS)-2-fluorotetrahydro-1H-pyrrolizin-7a(5H)-yl)methoxy)-5,6,6a,7,8,9,10,11-octahydro-4H-3,11a,12,14,15-pentaaza-7,10-methanocyclohepta[4,5]cycloocta[1,2,3-de]naphthalen-15-yl)methyl)-5-propyl-1,3-dioxol-2-one], the EC50 in the series on GP2D (KRAS G12D) cells amounted to 0.46 nM. Besides, in series [1] (15 mg/kg), the “Rat Parent % F” value is on record as 5% and the “Rat Parent AUC” value came out at 0.27 µM·h.

Consider `C#Cc1c(F)ccc2cc(N)cc(-c3nc4c5c(nc(OC[C@@]67CCCN6C[C@H](F)C7)nc5c3F)N3C[C@H]5CC[C@@H]([C@H]3CCC4)N5Cc3oc(=O)oc3CCCCCC)c12` [Example 36, 4-(((6aR,7S,10R)-2-(3-amino-8-ethynyl-7-fluoronaphthalen-1-yl)-1-fluoro-13-(((2R,7aS)-2-fluorotetrahydro-1H-pyrrolizin-7a(5H)-yl)methoxy)-5,6,6a,7,8,9,10,11-octahydro-4H-3,11a,12,14,15-pentaaza-7,10-methanocyclohepta[4,5]cycloocta[1,2,3-de]naphthalen-15-yl)methyl)-5-hexyl-1,3-dioxol-2-one], for which the EC50 with GP2D (KRAS G12D) cells was found to be 0.49 nM. For the same compound, in series [1] (7.5 mg/kg), the “Rat Parent % F” value came to 1.9% and the “Rat Parent AUC” value is 0.052 µM·h.

With `C#Cc1c(F)ccc2cc(O)cc(-c3nc4c5c(nc(OC[C@@]67CCCN6C[C@H](F)C7)nc5c3F)N3C[C@H]5CC[C@@H]([C@@H]3[C@H]3CCC[C@@H]43)N5Cc3oc(=O)oc3C)c12` [Example 42, 4-(((3aS,3bS,4S,7R,14bR)-13-(8-ethynyl-7-fluoro-3-hydroxynaphthalen-1-yl)-12-fluoro-10-(((2R,7aS)-2-fluorotetrahydro-1H-pyrrolizin-7a(5H)-yl)methoxy)-2,3,3a,3b,4,5,6,7,8,14b-decahydro-1H-8a,9,11,14,15-pentaaza-4,7-methanocyclopenta[d]naphtho[1,8-ab]heptalen-15-yl)methyl)-5-methyl-1,3-dioxol-2-one], the EC50 in the series with GP2D (KRAS G12D) cells was 1.7 nM. Moreover, in series [1] (7.5 mg/kg), the “Rat Parent % F” value is 0.3% and the “Rat Parent AUC” value worked out at 0.2 µM·h.

Consider `C#Cc1c(F)ccc2cc(N)cc(-c3nc4c5c(nc(OC[C@@]67CCCN6C[C@H](F)C7)nc5c3F)N3C[C@H]5CC[C@@H]([C@H]3CCC4)N5Cc3oc(=O)oc3C(C)C)c12` [Example 80, 4-(((6aR,7S,10R)-2-(3-amino-8-ethynyl-7-fluoronaphthalen-1-yl)-1-fluoro-13-(((2R,7aS)-2-fluorotetrahydro-1H-pyrrolizin-7a(5H)-yl)methoxy)-5,6,6a,7,8,9,10,11-octahydro-4H-3,11a,12,14,15-pentaaza-7,10-methanocyclohepta[4,5]cycloocta[1,2,3-de]naphthalen-15-yl)methyl)-5-isopropyl-1,3-dioxol-2-one], for which the EC50 in the series on GP2D (KRAS G12D) cells was found to be 0.37 nM. In series [1] (7.5 mg/kg), the “Rat Parent % F” value came to 2.1% and the “Rat Parent AUC” value is 0.057 µM·h.

In the case of `C#Cc1c(F)ccc2cc(N)cc(-c3nc4c5c(nc(OC[C@@]67CCCN6C[C@H](F)C7)nc5c3F)N3C[C@H]5CC[C@@H]([C@H]3CCC4)N5Cc3oc(=O)oc3C(C)(C)C)c12` [Example 81, 4-(((6aR,7S,10R)-2-(3-amino-8-ethynyl-7-fluoronaphthalen-1-yl)-1-fluoro-13-(((2R,7aS)-2-fluorotetrahydro-1H-pyrrolizin-7a(5H)-yl)methoxy)-5,6,6a,7,8,9,10,11-octahydro-4H-3,11a,12,14,15-pentaaza-7,10-methanocyclohepta[4,5]cycloocta[1,2,3-de]naphthalen-15-yl)methyl)-5-(tert-butyl)-1,3-dioxol-2-one], the EC50 in the series on GP2D (KRAS G12D) cells is 0.63 nM. In addition, in series [1] (7.5 mg/kg), the “Rat Parent % F” value is recorded as 0.4% and the “Rat Parent AUC” value is 0.011 µM·h.
